Counter-ions that a name gives are not always drawn.
Target: T1, Amyloid-beta(1-42) oligomer binding to heparin (HS-GAG) (Homo sapiens, UniProt P05067)
T1 construct: Beta-amyloid (1-42) was purchased from rPeptide (Cat. No. A1163); purchased rPeptide A1163
Experiment: Inhibition of Amyloid-beta(1-42) oligomer binding to immobilized heparin-BSA (ELISA)
Set-up: species or system porcine
Conditions: 30 μM compound; Abeta(1-42) oligomers, heparin-BSA; read-out: Abeta42/Heparin Activity (% inhibition class)
Description: Porcine intestinal mucosa heparin conjugated to Bovine Serum Albumin (Heparin-BSA) was prepared as described (Najjam, S. et al. 1997, Cytokine 12, 1013-1022). Heparin is a sulfated HS-GAG and is commonly used as a HS-GAG in biochemical and binding assays (Lindahl, U. and Kjellen, L. (2013) ibid). Heparin-BSA at 0.01 mg/ml in Phosphate Buffered Saline (PBS; pH 7.4) was added to a 96 well polystyrene ELISA plate (NUNC Cat. No. 449824; 100 μl per well) and incubated Over Night (ON) at 4 degrees Celsius. For negative controls, ELISA plates were coated with BSA instead of Heparin-BSA, using the same procedure. Following the incubation, the plate was washed consecutively, by immersion, with de-ionized water and PBS (pH 7.4). The ELISA plate was then blocked with nonfat milk (2%, 200 μl per well) for 2 hours at Room Temperature (RT) with gentle shaking. Following blocking, the plate was washed with de-ionized water then PBS (pH 7.4). GBAPs were dissolved and diluted in PBS (pH 6.5, supplemented with 0.1% BSA) at desired concentrations, added to the ELISA plates containing immobilized Heparin-BSA (100 μl per well) and incubated for 2 hours at RT with gentle shaking. Following incubation, the plate was washed with de-ionized water and three times with PBS (pH 6.5) plus Tween. Bound GBAP was detected by a monoclonal antibody specific for that GBAP, followed by incubation with secondary antibody conjugated to horseradish peroxidase (HRP). Antibody was diluted in PBS (pH 6.5 supplemented with 1% BSA). Following each incubation with antibody, the plate was washed with de-ionized water and three times with PBS (pH 6.5) wash buffer containing 0.1% Tween. The peroxidase substrate chromogen, TMB (Dako Cat. No. S1599) was added (100 μl per well) to the ELISA plate and incubated at room temperature. After 5 minutes ELISA Stop Solution (hydrochloric acid 1N, sulfuric acid 3N) was added (100 μl per well) to stop the peroxidase catalyzed colorimetric reaction. The Optical Density of the samples was measured at 450 nm using an ELISA plate reader (BioTek Synergy H1). Following color development, the % inhibition compared to control (BSA-coated plates) was determined. IC-50s were calculated using GraphPad Prism software.
The assay was performed as described in Example 43, with the following modifications. Following to coating the plates with Heparin-BSA, plates were washed as described. The compounds were dissolved in DMSO at 10 mM final concentration and further diluted prior to assay. DMSO concentration in the screening well was up to 2%. Individual compounds were co-incubated with Beta-amyloid peptides on plates containing immobilized heparin. Beta-amyloid (1-42) was purchased from rPeptide (Cat. No. A1163) and used to prepare oligomers according to Stine et al., 2003 (J Biol Chem. 278(13):11612-22) as follows. 1,1,1,3,3,3-Hexafluoro-2-propanol- (HFIP; Sigma Cat. No. 105228)-treated Beta amyloid (1-42) was dissolved in dry DMSO (Sigma Cat. No. D2650) to 5 mM concentration. Dissolved Beta amyloid (1-42) was then diluted to 100 μM in ice-cold cell culture medium (phenol red-free Ham's F-12; Caisson Labs, Cat. No. HFL05), followed immediately by vortexing for 30 seconds, and incubating at 4 degrees Celsius for 24 h. Resulting Beta amyloid (1-42) oligomers were centrifuged at 12,000 rpm for 10 min at 4 degree Celsius to remove aggregates. Oligomers were then quickly frozen and kept in aliquots at −80 degrees Celsius. Beta-amyloid (1-40) from rPeptide (Cat No. A1153) was dissolved in DMSO, quickly frozen and kept in aliquots at −80 degrees Celsius. Beta-amyloid (1-42) oligomers or Beta-amyloid (1-40) diluted in PBS (pH 6.5, supplemented with BSA, 0.1%) were added to the ELISA plate (100 μl per well) and incubated for 2 hours at RT with gentle shaking. Following the incubation, the plate was washed with de-ionized water and three times with PBS (pH 6.5) plus Tween. […]

T1 sequence (P05067 672-713): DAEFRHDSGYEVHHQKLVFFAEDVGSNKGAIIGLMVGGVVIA

Compared with `Fc1ccc2c(N/N=C/c3ccc(CN4CCOCC4)cc3)ccnc2c1` [Compound 6, (E)-4-(4-((2-(7-fluoroquinolin-4-yl)hydrazono)methyl)benzyl)morpholine], `O=S1(=O)CCN(Cc2ccc(/C=N/Nc3ccnc4cc(F)ccc34)cc2)CC1` [Compound 10, (E)-4-(4-((2-(7-fluoroquinolin-4-yl)hydrazono)methyl)benzyl)thiomorpholine 1,1-dioxide] is lower in inhibition at 30 µM: greater than 30% for the first, less than 30% for the second.

`COc1cc(Nc2cncc3cc(Cl)ccc23)cnc1-n1cnc(C)c1C` [Compound 33, 7-chloro-N-(6-(4,5-dimethyl-1H-imidazol-1-yl)-5-methoxypyridin-3-yl)isoquinolin-4-amine phosphoric acid salt] and `COc1cc(Nc2nncc3cc(Cl)ccc23)cnc1-n1cnc(C)c1C` [Compound 31, 6-chloro-N-(6-(4,5-dimethyl-1H-imidazol-1-yl)-5-methoxypyridin-3-yl)phthalazin-1-amine phosphoric acid salt] cannot be ordered by inhibition at 30 µM: less than 30% for the first, less than 30% for the second.

`CCN1CCN(c2ccc(Nc3ccnc4cc5ccccc5cc34)cc2)CC1` [Compound 39, N-(4-(4-ethylpiperazin-1-yl)phenyl)benzo[g]quinolin-4-amine] and `CN1CCN(Cc2ccc(/C=N/Nc3ccnc4cc(Cl)ccc34)cc2)CC1` [Compound 7, (E)-7-chloro-4-(2-(4-((4-methylpiperazin-1-yl)methyl)benzylidene)hydrazinyl)quinolone] cannot be ordered by inhibition at 30 µM: less than 30% for the first, less than 30% for the second.

`CCN(CC)Cc1cccc(Nc2ccnc3cc(Cl)ccc23)c1` [Compound 42, 7-chloro-N-(3-((diethylamino)methyl)phenyl)quinolin-4-amine] and `CN(C)Cc1cc(Nc2ccnc3cc(Cl)ccc23)ccn1` [Compound 45, 7-chloro-N-(2-((dimethylamino)methyl)pyridin-4-yl)quinolin-4-amine] cannot be ordered by inhibition at 30 µM: less than 30% for the first, less than 30% for the second.

Compared with `C/C(=N\Nc1ncnc2cc(Cl)ccc12)c1ccc(-n2cncn2)nc1` [Compound 32, (E)-4-(2-(1-(6-(1H-1,2,4-triazol-1-yl)pyridin-3-yl)ethylidene)hydrazineyl)-7-chloroquinazoline], `C/C(=N\Nc1ncnc2cc(Cl)ccc12)c1cccc(CN(C)C)c1` [Compound 29, 1-(3-(1-(2-(7-chloroquinazolin-4-yl)hydrazineylidene)ethyl)phenyl)—N,N-dimethylmethanamine] is higher in inhibition at 30 µM: less than 30% for the first, greater than 30% for the second.

For `C[n+]1ccc(/C=N\Nc2ccnc3ccccc23)cc1` [Compound 9, (Z)-1-methyl-4-((2-(quinolin-4-yl)hydrazono)methyl)pyridin-1-ium iodide], the inhibition at 30 µM was less than 30%.

Same assay, conditions: Abeta(1-42) oligomers, co-incubation on heparin-BSA plates; read-out: Abeta42/Heparin Activity (IC-50)

Point of comparison: `Cc1ncn(-c2ccc(/C=N\Nc3ncnc4cc(Cl)ccc34)cn2)c1C` [Compound 15, 7-chloro-4-(2-((6-(4,5-dimethyl-1H-imidazol-1-yl)pyridin-3-yl)methylene)hydrazineyl)quinazoline hydrochloride], IC50 18.9 µM. Against it:
- Clc1ccc2c(N/N=C/c3ccc(-n4ccnc4)cc3)ccnc2c1 [Compound 38, 4-(2-(4-(1H-imidazol-1-yl)benzylidene)hydrazineyl)-7-chloroquinoline dihydrochloride] — 6.9-fold lower, 2.74 µM
- Clc1ccc2c(Nc3ccc(-n4ccnc4)nc3)ncnc2c1 [Compound 41, N-(6-(1H-imidazol-1-yl)pyridin-3-yl)-7-chloroquinazolin-4-amine] — 3.8-fold higher, 72.4 µM
- CC(=NNc1ncnc2cc(Cl)ccc12)c1ccnc(-n2cnc(C)c2C)c1 [Compound 28, 7-chloro-4-(2-(1-(2-(4,5-dimethyl-1H-imidazol-1-yl)pyridin-4-yl)ethylidene)hydrazineyl)quinazoline] — within 1.5-fold, 12.9 µM
- Clc1ccc2c(Nc3ccc(-n4cncn4)nc3)ncnc2c1 [Compound 34, N-(6-(1H-1,2,4-triazol-1-yl)pyridin-3-yl)-7-chloroquinazolin-4-amine phosphoric acid salt] — 1.9-fold lower, 9.93 µM
- Cc1ncn(-c2ccc(/C=N/Nc3ccnc4cc(Cl)ccc34)cc2)c1C [Compound 2, (E)-7-chloro-4-((E)-(4-(4,5-dimethyl-1H-imidazol-1-yl)benzylidene)hydrazono)-1,4-dihydroquinoline] — 1.6-fold higher, 30.7 µM
- Clc1ccc2c(N/N=C/c3ccc(-n4cccn4)cc3)ccnc2c1 [Compound 3, (E)-4-((E)-(4-(1H-pyrazol-1-yl)benzylidene)hydrazono)-7-chloro-1,4-dihydroquinoline] — 8-fold lower, 2.36 µM
- C/C(=N\Nc1ncnc2cc(Cl)ccc12)c1ccc(-n2cnc(C)c2C)nc1 [Compound 16, 7-chloro-4-(2-(1-(6-(4,5-dimethyl-1H-imidazol-1-yl)pyridin-3-yl)ethylidene)hydrazineyl)quinazoline phosphate] — 3.4-fold lower, 5.48 µM
- Fc1cc(/C=N/Nc2ccnc3cc(Cl)ccc23)ccc1-n1ccnc1 [Compound 35, (E)-7-chloro-4-(2-(3-fluoro-4-(1H-imidazol-1-yl)benzylidene)hydrazineyl)quinoline hydrochloride] — within 1.5-fold, 15.4 µM
- Clc1ccc2c(N/N=C/c3ccc(-n4ccnc4)nc3)ccnc2c1 [Compound 14, (E)-4-(2-((6-(1H-imidazol-1-yl)pyridin-3-yl)methylene)hydrazineyl)-7-chloroquinoline hydrochloride] — 2.3-fold lower, 8.14 µM

Same assay, conditions: read-out: Abeta42/Heparin Activity (% inhibition class)

`C/C(=N\Nc1ncnc2cc(Cl)ccc12)c1ccc(-n2cc(C)nc2C)nc1` [Compound 27, (E)-7-chloro-4-(2-(1-(6-(2,4-dimethyl-1H-imidazol-1-yl)pyridin-3-yl)ethylidene)hydrazineyl)quinazoline hydrochloride] and `CC(=NNc1ccnc2cc(Cl)ccc12)c1ccc(-n2cnc(C)c2C)nc1` [Compound 22, 7-chloro-4-(2-(1-(6-(4,5-dimethyl-1H-imidazol-1-yl)pyridin-3-yl)ethylidene)hydrazineyl)quinoline] cannot be ordered by inhibition at 30 µM: greater than 30% for the first, greater than 30% for the second.

`Fc1ccc2c(N/N=C/c3ccc(-n4ccnc4)cc3)ccnc2c1` [Compound 5, (E)-4-(2-(4-(1H-imidazol-1-yl)benzylidene)hydrazinyl)-7-fluoroquinoline] and `COc1cc2nccc(NN=Cc3ccc(-n4ccnc4)c(C)c3)c2cc1OC` [Compound 11, 4-(2-(4-(1H-imidazol-1-yl)-3-methylbenzylidene)hydrazineyl)-6,7-dimethoxyquinoline hydrochloride] cannot be ordered by inhibition at 30 µM: less than 30% for the first, less than 30% for the second.

`COc1cc2nccc(N/N=C/c3ccc(-n4ccnc4)c(OC)c3)c2cc1OC` [Compound 13, (E)-4-(2-(4-(1H-imidazol-1-yl)-3-methoxybenzylidene)hydrazineyl)-6,7-dimethoxyquinoline phosphate] and `CN1CCN(c2cc(Nc3ccnc4cc(Cl)ccc34)ccn2)CC1` [Compound 20, 7-chloro-N-(2-(4-methylpiperazin-1-yl)pyridin-4-yl)quinolin-4-amine] cannot be ordered by inhibition at 30 µM: less than 30% for the first, less than 30% for the second.

`C/C(=N\Nc1ncnc2cc(F)ccc12)c1ccc(-n2cc[n+](C)c2)nc1` [Compound 26, (E)-1-(5-(1-(2-(7-fluoroquinazolin-4-yl)hydrazineylidene)ethyl)pyridin-2-yl)-3-methyl-1H-imidazol-3-ium phosphoric acid salt] showed an inhibition at 30 µM greater than 30%.
